The text below walks through data of patent US9394314B2, “8′-hydroxy-dihydroergotamine compounds and compositions” (priority 2012, dated 2016).

One data set addresses T1, human D2L receptor (Homo sapiens, UniProt P14416).
T1 construct: purchased Euroscreen; host or cells: CHO-K1
Kind of data set: Radioligand binding assay (competition and kinetics), CHO-K1 membranes. As for the experimental part: (§1) For kinetics of radioligand competitive binding, serial dilutions were performed from master solution in 100% DMSO to obtain intermediate concentrations 200-fold higher than the concentrations to be tested. Each test sample was diluted 100-fold in the assay buffer and dispensed into the test plate.
D2L Radioligand Binding Assay
Assay buffer: 25 mM HEPES (pH 7.4), 5 mM MgCl2, 1 mM CaCl2, BSA protease free 0.5%
Washing buffer: 25 mM HEPES (pH 7.4), 5 mM MgCl2, 1 mM CaCl2
Membrane: recombinant CHO-K1-D2L membranes thawed on ice and diluted in assay buffer (2 μg/well)
Ligand: Risperidone (Tocris Bioscience, 2865) […]
(§2) Determination of IC50 and Ki constant for each test compound. […] After washing the filters 5 times with 0.5 mL of ice-cold washing buffer, 50 μL of Microscint 20 (Packard) were added to the filters and the plates were incubated 15 min on an orbital shaker and then counted for 1 min/well. […]
Determination of kon and koff constants for each test compound. Each compound was first assessed in a pilot experiment to evaluate its effect on the kinetic binding of each receptor-radioligand pair. […] After washing the filters 5 times with 0.5 mL of ice-cold washing buffer, 50 μL of Microscint 20 (Packard) were added to the filters and the plates were incubated 15 min on an orbital shaker and then counted for 1 min/well. […]

The target in a further data set is T2, human 5-HT1D receptor (Homo sapiens, UniProt P28221).
T2 construct: purchased Euroscreen; host or cells: CHO-K1
T2 sequence (P28221 whole entry): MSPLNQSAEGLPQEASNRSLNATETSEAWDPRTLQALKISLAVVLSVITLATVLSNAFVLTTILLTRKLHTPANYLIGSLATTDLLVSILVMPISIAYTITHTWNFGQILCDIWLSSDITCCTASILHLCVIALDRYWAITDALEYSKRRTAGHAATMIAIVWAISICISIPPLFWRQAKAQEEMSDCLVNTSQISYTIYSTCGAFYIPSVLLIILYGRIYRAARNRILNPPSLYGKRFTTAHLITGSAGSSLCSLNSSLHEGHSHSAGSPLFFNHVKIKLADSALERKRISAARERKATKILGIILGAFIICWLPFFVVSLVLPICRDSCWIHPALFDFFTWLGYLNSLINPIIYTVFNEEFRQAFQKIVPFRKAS
Described as above. As for the experimental part: as §1
5-HT1D Radioligand Binding Assay
Assay buffer: 50 mM Tris (pH 7.4), 4 mM CaCl2, 0.1% ascorbic acid
(§3) Washing buffer: 50 mM Tris (pH 7.4)
Membrane: recombinant CHO-K1-5-HT1D membranes thawed on ice and diluted in assay buffer (10 μg/well)
Ligand: 5-HT (Sigma, H-9523)
as §2
(§4) Determination of kon and koff constants for each test compound. Each compound was first assessed in a pilot experiment to evaluate its effect on the kinetic binding of each receptor-radioligand pair. […] After washing the filters 5 times with 0.5 mL of ice-cold washing buffer, 50 μL of Microscint 20 (Packard) were added to the filters and the plates were incubated 15 min on an orbital shaker and then counted for 1 min/well.

The target in another data set is T3, human 5-HT1B receptor (Homo sapiens, UniProt P28222).
T3 construct: purchased Euroscreen; host or cells: CHO-K1
T3 sequence (P28222 whole entry): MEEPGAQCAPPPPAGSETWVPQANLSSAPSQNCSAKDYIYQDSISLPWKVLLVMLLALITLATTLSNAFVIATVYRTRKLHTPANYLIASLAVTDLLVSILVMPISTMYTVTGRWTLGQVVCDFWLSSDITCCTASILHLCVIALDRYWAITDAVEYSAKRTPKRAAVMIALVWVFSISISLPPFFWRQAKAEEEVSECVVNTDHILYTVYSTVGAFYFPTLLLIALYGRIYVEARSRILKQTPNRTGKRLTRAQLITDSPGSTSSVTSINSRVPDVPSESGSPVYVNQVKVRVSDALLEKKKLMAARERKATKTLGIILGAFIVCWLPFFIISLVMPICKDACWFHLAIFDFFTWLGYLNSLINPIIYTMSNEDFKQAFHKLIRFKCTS
The description is as above. Here is the method: as §1
5-HT1B Radioligand Binding Assay
as §3
Ligand: 5-CT (Tocris, 0458)
Determination of IC50 and Ki constant for each test compound. […] The samples were incubated for 60 min (or 4 hours for a second experiment on 5-HT2B receptors) at a temperature optimized for each receptor and then filtered over a filter plate. After washing the filters 5 times with 0.5 mL of ice-cold washing buffer, 50 μL of Microscint 20 (Packard) were added to the filters and the plates were incubated 15 min on an orbital shaker and then counted for 1 min/well. The test compounds were tested in duplicate at the nanomolar concentrations reported below in Table 5.
as §4

For data set [1] the following is noted: cited from earlier work.
For data set [2] the following is noted: subcutaneously, concentration 1.5 mM; cited from earlier work.

T1 sequence (P14416 whole entry): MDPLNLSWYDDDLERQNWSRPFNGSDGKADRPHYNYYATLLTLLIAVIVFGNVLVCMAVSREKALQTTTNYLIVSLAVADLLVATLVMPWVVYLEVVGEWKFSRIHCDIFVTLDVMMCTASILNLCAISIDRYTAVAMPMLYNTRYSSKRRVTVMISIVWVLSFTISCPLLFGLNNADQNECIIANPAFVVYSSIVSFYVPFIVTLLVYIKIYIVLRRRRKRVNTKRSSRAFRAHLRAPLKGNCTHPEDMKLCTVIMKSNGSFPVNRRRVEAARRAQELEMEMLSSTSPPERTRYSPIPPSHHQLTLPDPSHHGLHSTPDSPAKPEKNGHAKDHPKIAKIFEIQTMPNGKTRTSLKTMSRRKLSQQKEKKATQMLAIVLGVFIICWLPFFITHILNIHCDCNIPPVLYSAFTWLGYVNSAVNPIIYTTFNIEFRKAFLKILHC

As to `CN1C[C@H](C(=O)N[C@]2(C)O[C@@]3(O)[C@@H]4CCC(O)N4C(=O)[C@H](Cc4ccccc4)N3C2=O)C[C@@H]2c3cccc4[nH]cc(c34)C[C@H]21` (stereo partly shown) [8′-OH DHE, 8′-Hydroxy-Dihydroergotamine], the “Avg Koff” value turned out to be 0.00127 s⁻¹ at human D2L receptor, 0.000175 s⁻¹ at human 5-HT1D receptor and 9.83e-05 s⁻¹ on human 5-HT1B receptor. Besides, in data set [1] (previous studies), the “concentration of 8′-OH DHE metabolite relative to parent DHE” value was 5 to 7 times.

Consider `CN1C[C@H](C(=O)N[C@]2(C)O[C@@]3(O)[C@@H]4CCCN4C(=O)[C@H](Cc4ccccc4)N3C2=O)C[C@@H]2c3cccc4[nH]cc(c34)C[C@H]21` [DHE, Dihydroergotamine], for which the “treated patients with nausea” value in data set [2] is listed as around 16%. In addition, in data set [1] (IM administered dose), the “fraction of administered dose extracted in the urine” value is given as 6-7%. Also, in data set [1] (nasal administration of DHE), the “total DHE metabolites as share of plasma AUC” value was 20-30%.
